Measured values from ChEMBL document CHEMBL1909046, “DrugMatrix in vitro pharmacology data”.

Columns and labels:
[1] = target: T1, Amine oxidase [flavin-containing] A (Homo sapiens, UniProt P21397); assay: DRUGMATRIX: Monoamine Oxidase MAO-A enzyme inhibition (substrate: Kynuramine); set-up: species or system BTI-TN-5B1-4; conditions: bti-tn-5b1-4; Not Active = under 50% inhibition at 10 µM
T1 sequence (P21397 whole entry): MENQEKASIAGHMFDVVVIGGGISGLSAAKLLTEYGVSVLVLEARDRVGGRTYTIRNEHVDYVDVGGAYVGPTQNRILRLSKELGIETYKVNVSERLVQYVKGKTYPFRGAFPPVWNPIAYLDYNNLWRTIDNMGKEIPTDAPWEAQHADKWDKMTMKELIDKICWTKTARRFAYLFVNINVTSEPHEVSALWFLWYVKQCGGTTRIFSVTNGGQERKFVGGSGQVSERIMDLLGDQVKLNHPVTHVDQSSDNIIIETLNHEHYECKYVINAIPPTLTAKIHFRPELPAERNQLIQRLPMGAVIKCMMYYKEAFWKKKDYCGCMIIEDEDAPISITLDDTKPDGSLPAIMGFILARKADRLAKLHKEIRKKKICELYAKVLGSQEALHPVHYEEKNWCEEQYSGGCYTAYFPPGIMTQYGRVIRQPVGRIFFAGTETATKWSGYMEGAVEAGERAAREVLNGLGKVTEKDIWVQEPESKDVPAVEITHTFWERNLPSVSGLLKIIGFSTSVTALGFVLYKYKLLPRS

[2] = DRUGMATRIX: Glutamate, NMDA, Phencyclidine radioligand binding (ligand: [3H] TCP); type: cell membranes, Rattus norvegicus, Wistar, Cerebral cortex, Membrane; conditions: Not Active = under 50% inhibition at 10 µM
[3] = target: T2, Muscarinic acetylcholine receptor M2 (Homo sapiens, UniProt P08172); type: cell membranes, CHO-K1, Membrane; conditions: cho-k1; further: in other assays of this panel Not Active means under 50% inhibition at 10 µM
T2 sequence (P08172 whole entry): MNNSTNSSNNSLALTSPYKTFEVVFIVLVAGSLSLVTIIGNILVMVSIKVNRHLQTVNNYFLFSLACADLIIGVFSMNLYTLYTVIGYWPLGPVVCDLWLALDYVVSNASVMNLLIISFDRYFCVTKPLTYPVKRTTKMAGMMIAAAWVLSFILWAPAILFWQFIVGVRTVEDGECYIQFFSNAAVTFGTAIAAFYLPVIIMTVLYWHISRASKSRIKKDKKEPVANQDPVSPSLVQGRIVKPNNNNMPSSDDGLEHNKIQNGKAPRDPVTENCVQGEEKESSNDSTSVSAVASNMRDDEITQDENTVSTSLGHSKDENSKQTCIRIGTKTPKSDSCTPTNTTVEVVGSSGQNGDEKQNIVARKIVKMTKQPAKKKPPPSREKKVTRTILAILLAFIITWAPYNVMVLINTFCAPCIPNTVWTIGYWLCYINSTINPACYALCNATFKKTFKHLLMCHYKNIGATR

[4] = target: Sigma non-opioid intracellular receptor 1 (Homo sapiens, UniProt Q99720); assay: DRUGMATRIX: Sigma1 radioligand binding (ligand: [3H] Haloperidol); type: cell membranes, Jurkat, Membrane; conditions: jurkat; Not Active = under 50% inhibition at 10 µM
Sequence of Sigma non-opioid intracellular receptor 1 (Q99720 whole entry): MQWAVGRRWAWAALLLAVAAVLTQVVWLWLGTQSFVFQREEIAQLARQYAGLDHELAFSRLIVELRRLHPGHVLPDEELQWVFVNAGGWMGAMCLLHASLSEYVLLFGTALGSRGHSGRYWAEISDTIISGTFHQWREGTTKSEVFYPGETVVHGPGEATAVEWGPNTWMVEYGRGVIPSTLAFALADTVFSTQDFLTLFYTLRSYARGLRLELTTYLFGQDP

[5] = DRUGMATRIX: Nicotinic Acetylcholine radioligand binding (ligand: [125I] Epibatidine); type: cell membranes, Membrane; conditions: imr-32; Not Active = under 50% inhibition at 10 µM
[6] = target: T3, 3-hydroxy-3-methylglutaryl-coenzyme A reductase (Homo sapiens, UniProt P04035); set-up: species or system Escherichia coli;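 further: enzyme inhibition assay of HMG-CoA reductase using radiolabeled [14C]HMG-CoA as substrate; in other assays of this panel Not Active means under 50% inhibition at 10 µM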
T3 sequence (P04035 whole entry): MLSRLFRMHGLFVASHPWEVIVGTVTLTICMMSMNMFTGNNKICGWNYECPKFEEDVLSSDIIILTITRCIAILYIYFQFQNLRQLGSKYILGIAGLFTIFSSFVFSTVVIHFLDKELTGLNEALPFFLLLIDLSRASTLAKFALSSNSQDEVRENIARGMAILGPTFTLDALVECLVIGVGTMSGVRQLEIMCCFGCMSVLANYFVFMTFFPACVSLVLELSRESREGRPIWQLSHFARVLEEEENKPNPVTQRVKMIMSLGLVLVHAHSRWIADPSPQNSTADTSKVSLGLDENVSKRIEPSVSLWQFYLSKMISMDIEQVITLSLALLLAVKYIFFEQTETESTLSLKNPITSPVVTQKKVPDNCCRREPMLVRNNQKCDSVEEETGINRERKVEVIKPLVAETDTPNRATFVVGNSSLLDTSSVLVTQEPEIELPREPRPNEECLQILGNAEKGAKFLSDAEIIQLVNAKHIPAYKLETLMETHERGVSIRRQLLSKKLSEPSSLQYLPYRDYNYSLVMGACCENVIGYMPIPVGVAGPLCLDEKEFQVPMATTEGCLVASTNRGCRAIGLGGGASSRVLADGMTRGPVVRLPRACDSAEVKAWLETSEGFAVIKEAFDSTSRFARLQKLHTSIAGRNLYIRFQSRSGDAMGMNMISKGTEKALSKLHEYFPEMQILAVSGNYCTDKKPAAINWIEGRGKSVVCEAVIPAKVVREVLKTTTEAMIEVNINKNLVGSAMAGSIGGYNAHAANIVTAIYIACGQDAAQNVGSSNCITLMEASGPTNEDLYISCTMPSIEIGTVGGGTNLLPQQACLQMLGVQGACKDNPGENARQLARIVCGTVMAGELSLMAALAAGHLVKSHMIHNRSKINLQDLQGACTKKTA

CCC1(c2ccccc2)C(=O)NC(=O)NC1=O [PHENOBARBITAL]
Not Active: IC50 [1] | IC50 [2] | Ki [2] | IC50 [3] | IC50 [4] | IC50 [5] | Ki [5] | IC50 [6]

O=C(O)COC(=O)Cc1ccccc1Nc1c(Cl)cccc1Cl [ACECLOFENAC]
Not Active: IC50 [1] | IC50 [2] | Ki [2] | IC50 [3] | IC50 [4] | IC50 [5] | Ki [5] | IC50 [6]
